As usually defined, the IC50 is the concentration at which inhibition is half-maximal.

The assay deals with T1, LRRK2 G2019S mutant kinase (Homo sapiens, UniProt Q5S007, G2019S).
T1 construct: GST; purchased Invitrogen PV4882
T1 sequence (Q5S007 whole entry G2019S): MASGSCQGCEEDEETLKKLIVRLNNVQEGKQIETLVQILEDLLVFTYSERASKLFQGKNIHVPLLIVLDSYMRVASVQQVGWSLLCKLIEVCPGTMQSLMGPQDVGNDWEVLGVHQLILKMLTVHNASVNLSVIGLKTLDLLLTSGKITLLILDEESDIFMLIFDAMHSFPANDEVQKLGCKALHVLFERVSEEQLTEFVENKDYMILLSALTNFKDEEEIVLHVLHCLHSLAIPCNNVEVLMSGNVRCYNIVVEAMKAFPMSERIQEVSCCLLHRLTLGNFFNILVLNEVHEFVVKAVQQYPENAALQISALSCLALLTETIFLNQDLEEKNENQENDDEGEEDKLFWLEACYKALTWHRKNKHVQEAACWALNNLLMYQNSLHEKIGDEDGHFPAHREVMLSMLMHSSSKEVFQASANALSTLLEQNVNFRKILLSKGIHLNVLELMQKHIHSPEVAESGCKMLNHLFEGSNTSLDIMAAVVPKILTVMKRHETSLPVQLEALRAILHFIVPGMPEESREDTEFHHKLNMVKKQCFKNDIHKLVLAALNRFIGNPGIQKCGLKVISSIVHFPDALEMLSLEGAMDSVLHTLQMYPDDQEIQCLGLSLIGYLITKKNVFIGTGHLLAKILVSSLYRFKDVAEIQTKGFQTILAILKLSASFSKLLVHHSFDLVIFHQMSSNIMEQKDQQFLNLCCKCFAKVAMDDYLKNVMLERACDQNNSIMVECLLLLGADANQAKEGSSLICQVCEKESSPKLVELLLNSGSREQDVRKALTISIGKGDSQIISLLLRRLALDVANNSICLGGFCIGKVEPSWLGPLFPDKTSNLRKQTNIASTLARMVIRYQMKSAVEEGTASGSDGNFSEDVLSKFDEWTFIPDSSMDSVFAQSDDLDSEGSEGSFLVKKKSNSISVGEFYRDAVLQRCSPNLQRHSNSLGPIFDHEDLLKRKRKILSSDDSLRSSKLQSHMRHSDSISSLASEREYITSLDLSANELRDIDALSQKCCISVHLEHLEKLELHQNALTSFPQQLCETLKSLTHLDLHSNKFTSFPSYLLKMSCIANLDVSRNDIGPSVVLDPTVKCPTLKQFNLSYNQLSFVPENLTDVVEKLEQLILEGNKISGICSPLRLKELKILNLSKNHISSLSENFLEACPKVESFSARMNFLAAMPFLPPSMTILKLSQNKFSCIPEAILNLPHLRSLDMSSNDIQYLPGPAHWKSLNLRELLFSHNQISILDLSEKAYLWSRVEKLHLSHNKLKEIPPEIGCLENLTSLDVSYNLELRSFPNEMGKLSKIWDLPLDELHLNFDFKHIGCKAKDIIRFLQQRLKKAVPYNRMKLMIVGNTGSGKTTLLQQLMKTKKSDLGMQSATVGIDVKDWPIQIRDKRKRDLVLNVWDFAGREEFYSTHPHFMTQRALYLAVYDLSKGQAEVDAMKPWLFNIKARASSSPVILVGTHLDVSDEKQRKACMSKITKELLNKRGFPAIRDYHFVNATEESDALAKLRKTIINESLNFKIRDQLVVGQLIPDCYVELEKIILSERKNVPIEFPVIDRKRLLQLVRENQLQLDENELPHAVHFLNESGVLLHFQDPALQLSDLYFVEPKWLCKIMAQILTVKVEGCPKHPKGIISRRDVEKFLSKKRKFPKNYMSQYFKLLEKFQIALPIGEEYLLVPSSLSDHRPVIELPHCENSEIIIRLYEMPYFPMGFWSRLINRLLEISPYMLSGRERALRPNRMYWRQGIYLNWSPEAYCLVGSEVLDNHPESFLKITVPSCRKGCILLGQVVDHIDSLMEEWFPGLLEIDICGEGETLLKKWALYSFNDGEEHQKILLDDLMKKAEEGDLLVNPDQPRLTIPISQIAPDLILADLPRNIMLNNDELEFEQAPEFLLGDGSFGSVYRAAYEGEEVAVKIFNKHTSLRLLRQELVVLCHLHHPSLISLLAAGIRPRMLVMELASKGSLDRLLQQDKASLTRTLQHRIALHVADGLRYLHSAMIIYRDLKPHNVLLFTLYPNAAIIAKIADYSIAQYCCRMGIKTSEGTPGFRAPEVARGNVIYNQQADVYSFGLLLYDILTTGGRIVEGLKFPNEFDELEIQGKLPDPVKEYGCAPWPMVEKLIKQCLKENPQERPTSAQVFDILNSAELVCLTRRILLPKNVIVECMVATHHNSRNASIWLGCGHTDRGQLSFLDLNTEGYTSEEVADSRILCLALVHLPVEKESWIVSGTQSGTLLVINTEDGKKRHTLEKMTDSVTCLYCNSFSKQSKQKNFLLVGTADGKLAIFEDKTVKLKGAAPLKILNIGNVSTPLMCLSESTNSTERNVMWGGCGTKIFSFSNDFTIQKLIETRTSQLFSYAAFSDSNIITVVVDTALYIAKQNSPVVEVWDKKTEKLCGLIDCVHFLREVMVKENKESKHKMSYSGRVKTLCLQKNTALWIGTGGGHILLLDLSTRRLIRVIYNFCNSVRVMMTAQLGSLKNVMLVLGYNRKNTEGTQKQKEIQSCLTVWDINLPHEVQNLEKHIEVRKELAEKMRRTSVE
The experiment in a line: LRRK2 G2019S LanthaScreen TR-FRET kinase assay. The following applies: LRRK2 G2019S GST-tagged protein, 100 μM ATP, LRRKtide substrate; read-out: IC50 (potency). Format: biochemical. On the procedure: Activity of compounds against LRRK2 G2019S mutant kinase function was tested in a LANTHAScreen® assay as follows: Compounds were diluted in 100% DMSO to the desired test concentrations in white, low-volume 384-well plates (PerkinElmer ProxiPlate® PN: 6008280). TR-FRET kinase reactions (10 μL) were performed with 75 nM Fluorescein-ERM (LRRKtide, Invitrogen, PN:PV4901) substrate in a final assay buffer containing 100 μM ATP and 2 mM DTT diluted in commercially available Kinase Buffer S (Invitrogen PN: PV5213). The final solvent concentration in the assay was 1% DMSO. Reactions were initiated with the addition of 10 ng/well of LRRK2 02019S, GST-tagged protein (Invitrogen PN: PV4882). After incubation of the foil sealed reaction plates at room temperature with low speed mixing for 1 hour, the kinase reaction was stopped and the amount of substrate phosphorylation was detected by addition of 10 μL of 10 mM EDTA and 2 nM Tb-anti-pERM (pLRRKtide antibody, Invitrogen, PN: PV4898) antibody in TR-FRET dilution buffer (Invitrogen PN: PV3574). After a 30 minute incubation at room temperature with low speed mixing, foil seals were removed and measurements were obtained on a PerkinElmer EnVision with excitation 340 nm, emission 520 nm (channel 1): 495 nm (channel 2) settings. Generation of raw data and workup of data to derive the IC50 (potency) and maximal inhibition at concentrations tested were performed using Merck's Assay Data Analyzer (ADA) software.
In general terms: Time-resolved FRET reads energy transfer from a long-lived donor to a nearby acceptor.
Consider `CC(C)Nc1sc(-c2cc[nH]n2)c2c1C(=O)CC(C)(C)C2` [Example 37, 6,6-Dimethyl-3-(propan-2-ylamino)-1-(1H-pyrazol-3-yl)-6,7-dihydro-2-benzothiophen-4(5H)-one], for which the IC50 came out at 180 nM. `CCNc1sc(-c2cc[nH]n2)c2c1C(=O)CC(C)(C)C2` [Example 38, 3-(Ethylamino)-6,6-dimethyl-1-(1H-pyrazol-3-yl)-6,7-dihydro-2-benzothiophen-4(5H)-one]: the IC50 worked out at 290 nM. Turning to `CC1(C)CC(=O)c2c(NC3CCCCC3)sc(-c3cc[nH]n3)c2C1` [Example 39, 3-(Cyclohexylaminn)-6,6-dimethyl-1-(1H-pyrazol-3-yl)-6,7-dihydro-2-benzothiophen-4(5H)-one], the IC50 was 240 nM.

Take `CC1(C)CC(=O)c2c(N3CCC3)sc(-c3cc[nH]n3)c2C1` [Example 40, 3-(Azetidin-1-yl)-6,6-dimethyl-1-(1H-pyrazol-3-yl)-6,7-dihydro-2-benzothiophen-4(5H)-one]: the IC50 amounted to 580 nM. `CN(C)c1sc(-c2cc[nH]n2)c2c1C(=O)CC(C)(C)C2` [Example 41, 3-(Dimethylamino)-6,6-dimethyl-1-(1H-pyrazol-3-yl)-6,7-dihydro-2-benzothiophen-4(5H)-one]: the IC50 worked out at 2000 nM. Turning to `CN1CCN(CCCNc2sc(-c3cc[nH]n3)c3c2C(=O)CC(C)(C)C3)CC1` [Example 42, 6,6-Dimethyl-3-{[3-(4-methylpiperazin-1-yl)propyl]amino}-1-(1H-pyrazol-3-yl)-6,7-dihydro-2-benzothiophen-4(5H)-one], the IC50 stood at 420 nM. The figure for `CN1CCN(c2sc(-c3cc[nH]n3)c3c2C(=O)CC(C)(C)C3)CC1` [Example 43, 6,6-Dimethyl-3-(4-methylpiperazin-1-yl)-1-(1H-pyrazol-3-yl)-6,7-dihydro-2-benzothiophen-4(5H)-one] is 4000 nM; for `CC1(C)CC(=O)c2c(NCc3ccco3)sc(-c3cc[nH]n3)c2C1` [Example 44, 3-[(Furan-2-ylmethyl)amino]-6,6-dimethyl-1-(1H-pyrazol-3-yl)-6,7-dihydro-2-benzothiophen-4(5H)-one] it is 380 nM; for `CC1(C)CC(=O)c2c(NCCN3CCOCC3)sc(-c3cc[nH]n3)c2C1` [Example 45, 6,6-Dimethyl-3-{[2-(morpholin-4-yl)ethyl]amino}-1-(1H-pyrazol-3-yl)-6,7-dihydro-2-benzothiophen-4(5H)-one] it is 250 nM. For `CC1(C)CC(=O)c2c(NC3CC3)sc(-c3cc[nH]n3)c2C1` [Example 46, 3-(Cyclopropylamino)-6,6-dimethyl-1-(1H-pyrazol-3-yl)-6,7-dihydro-2-benzothiophen-4(5H)-one], the IC50 is 210 nM. With `CC1(C)CC(=O)c2c(NCCc3ccccn3)sc(-c3cc[nH]n3)c2C1` [Example 47, 6,6-Dimethyl-1-(1H-pyrazol-3-yl)-3-{[2-(pyridin-2-yl)ethyl]amino}-6,7-dihydro-2-benzothiophen-4(5H)-one], the IC50 was 290 nM. The figure for `CC1(C)CC(=O)c2c(NCc3ccccn3)sc(-c3cc[nH]n3)c2C1` [Example 48, 6,6-Dimethyl-1-(1H-pyrazol-3-yl)-3-[(pyridin-2-ylmethyl)amino]-6,7-dihydro-2-benzothiophen-4(5H)-one] is 620 nM. The same measure for `CC1(C)CC(=O)c2c(NC3CCCC3)sc(-c3cc[nH]n3)c2C1` [Example 49, 3-(Cyclopentylamino)-6,6-dimethyl-1-(1H-pyrazol-3-yl)-6,7-dihydro-2-benzothiophen-4(5H)-one]: 97 nM. For `CC1(C)CC(=O)c2c(NCCCCCCO)sc(-c3cc[nH]n3)c2C1` [Example 50, 3-[(6-Hydroxyhexyl)amino]-6,6-dimethyl-1-(1H-pyrazol-3-yl)-6,7-dihydro-2-benzothiophen-4(5H)-one], the IC50 was 180 nM. The same measure for `CC1(C)CC(=O)c2c(N[C@H]3CC[C@H](O)CC3)sc(-c3cc[nH]n3)c2C1` [Example 51, 3-[(trans-4-Hydroxycyclohexyl)amino]-6,6-dimethyl-1-(1H-pyrazol-3-yl)-6,7-dihydro-2-benzothiophen-4(5H)-one]: 220 nM.

The values above are taken from patent US20130338106A1, “COMPOUNDS INHIBITING LEUCINE-RICH REPEAT KINASE ENZYME ACTIVITY” (priority 2011, published 2013).
